{
  "source": "ChEMBL document CHEMBL1130070",
  "about": "“Zinc ejection as a new rationale for the use of cystamine and related disulfide-containing antiviral agents in the treatment of AIDS” (J Med Chem, 1997)",
  "key": {"CEM-SS [1]": {"test_system": "CEM-SS", "assay": "Antiviral activity against HIV-1ADA in […]; I = No antiviral activity", "assay_type": "functional, cell-based, Homo sapiens"}, "CEM-SS [2]": {"test_system": "CEM-SS", "assay": "Antiviral activity against HIV-1 in CEM-SS cells using […] assay", "assay_type": "functional, cell-based", "conditions": "Homo sapiens; call rule not given here"}, "CEM-SS [3]": {"test_system": "CEM-SS", "assay": "Antiviral activity against HIV-1 in CEM-SS cells using […] assay; I = No antiviral activity", "assay_type": "functional, cell-based, Homo sapiens"}, "[4]": {"test_system": "Human immunodeficiency virus 1", "assay": "Compound was tested for binding of HIV-1 to CEM-ss cells; NI = No inhibition", "assay_type": "functional, organism-based"}, "[5]": {"target": "Human immunodeficiency virus type 1 protease (Human immunodeficiency virus 1, UniProt Q72874)", "assay": "Compound was tested for effects on HIV-1 protease; NI = No inhibition"}, "[6]": {"target": "Human immunodeficiency virus type 1 reverse transcriptase (Human immunodeficiency virus 1, UniProt Q72547)", "assay": "Compound was tested for the effect on HIV-1 Reverse Transcriptase; NI = No inhibition"}, "CEM-SS [7]": {"test_system": "CEM-SS", "assay": "Antiviral activity against HIV-1ADA in […]", "assay_type": "functional, cell-based", "conditions": "Homo sapiens"}},
  "data": [
    {"molecule": "CCN(CC)C(=S)SSC(=S)N(CC)CC", "note": "[DISULFIRAM]", "values": [
      {"measurement": "EC50", "setting": "CEM-SS [1]", "value": "Not Active"},
      {"measurement": "IC50", "setting": "CEM-SS [2]", "value": 3.9, "unit": "µM"},
      {"measurement": "EC50", "setting": "CEM-SS [3]", "value": "Not Active"},
      {"measurement": "I50", "setting": "[4]", "value": "Not Active"},
      {"measurement": "I50", "setting": "[5]", "value": "Not Active"},
      {"measurement": "I50", "setting": "[6]", "value": "Not Active"},
      {"measurement": "IC50", "setting": "CEM-SS [7]", "value": "> 100", "unit": "µM"}
    ]},
    {"molecule": "CCN(CC)C(=S)S", "note": "[DITIOCARB]", "values": [
      {"measurement": "EC50", "setting": "CEM-SS [1]", "value": "Not Active"},
      {"measurement": "IC50", "setting": "CEM-SS [2]", "value": "> 100", "unit": "µM"},
      {"measurement": "EC50", "setting": "CEM-SS [3]", "value": "Not Active"},
      {"measurement": "I50", "setting": "[4]", "value": "Not Active"},
      {"measurement": "I50", "setting": "[5]", "value": "Not Active"},
      {"measurement": "I50", "setting": "[6]", "value": "Not Active"},
      {"measurement": "IC50", "setting": "CEM-SS [7]", "value": "> 100", "unit": "µM"}
    ]},
    {"molecule": "C/C(=C(\\CCO)SS/C(CCO)=C(/C)N(C=O)Cc1cnc(C)nc1N)N(C=O)Cc1cnc(C)nc1N", "values": [
      {"measurement": "EC50", "setting": "CEM-SS [1]", "value": "Not Active"},
      {"measurement": "IC50", "setting": "CEM-SS [2]", "value": 535, "unit": "µM"},
      {"measurement": "EC50", "setting": "CEM-SS [3]", "value": "Not Active"},
      {"measurement": "I50", "setting": "[4]", "value": "Not Active"},
      {"measurement": "I50", "setting": "[5]", "value": "Not Active"},
      {"measurement": "I50", "setting": "[6]", "value": "Not Active"},
      {"measurement": "IC50", "setting": "CEM-SS [7]", "value": "> 100", "unit": "µM"}
    ]},
    {"molecule": "NCCS", "note": "[CYSTEAMINE]", "values": [
      {"measurement": "EC50", "setting": "CEM-SS [2]", "value": 41.6, "unit": "µM"},
      {"measurement": "IC50", "setting": "CEM-SS [2]", "value": 71, "unit": "µM"},
      {"measurement": "I50", "setting": "[4]", "value": "Not Active"},
      {"measurement": "I50", "setting": "[5]", "value": "Not Active"},
      {"measurement": "I50", "setting": "[6]", "value": "Not Active"},
      {"measurement": "EC50", "setting": "CEM-SS [7]", "value": 53.7, "unit": "µM"},
      {"measurement": "IC50", "setting": "CEM-SS [7]", "value": "> 100", "unit": "µM"}
    ]},
    {"molecule": "NCCSSCCN", "note": "[CYSTAMINE]", "values": [
      {"measurement": "EC50", "setting": "CEM-SS [2]", "value": 56.2, "unit": "µM"},
      {"measurement": "IC50", "setting": "CEM-SS [2]", "value": 172, "unit": "µM"},
      {"measurement": "I50", "setting": "[4]", "value": "Not Active"},
      {"measurement": "I50", "setting": "[5]", "value": "Not Active"},
      {"measurement": "I50", "setting": "[6]", "value": "Not Active"},
      {"measurement": "EC50", "setting": "CEM-SS [7]", "value": 4.3, "unit": "µM"},
      {"measurement": "IC50", "setting": "CEM-SS [7]", "value": "> 100", "unit": "µM"}
    ]}
  ]
}
